For orientation: melting point means the temperature, or range, at which the solid turns liquid. The compound `OC[C@H]1CCCC[C@H]1Nc1nccc(-n2nnc3ccccc32)n1` [Example 9, (1S,2R)-[2-(4-benzotriazol-1-yl-pyrimidin-2-ylamino)-cyclohexyl]-methanol] had a melting point of 206.1 to 207.8 °C. Then `CN(c1nccc(-n2nnc3ccccc32)n1)[C@H]1CC[C@H](N(C)S(C)(=O)=O)CC1` [Example 14, N-{trans-4-[(4-benzotriazol-1-yl-pyrimidin-2-yl)-methyl-amino]-cyclohexyl}-N-methyl-methanesulfonamide], with 203.5 to 204 °C; and `O=C1CCC(=O)N1[C@H]1CC[C@H](Nc2nccc(-n3nnc4ccccc43)n2)CC1` [Example 15, 1-[trans-4-(4-benzotriazol-1-yl-pyrimidin-2-ylamino)-cyclohexyl]-pyrrolidine-2,5-dione], with 205 to 210 °C. For `O=C1CCC(Nc2nccc(-n3nnc4ccccc43)n2)CC1` [Example 16, 4-(4-benzotriazol-1-yl-pyrimidin-2-ylamino)-cyclohexanone] the value was 204.9 to 206.5 °C. Then `CC1(O)CCC(Nc2nccc(-n3nnc4ccccc43)n2)CC1` (stereo not drawn) [Example 17, 4-(4-benzotriazol-1-yl-pyrimidin-2-ylamino)-1-methyl-cyclohexanol], with 202.1 to 205.6 °C. For `COCC(=O)N[C@H]1CC[C@H](Nc2nccc(-n3nnc4ccccc43)n2)CC1` [Example 24, trans-N-[4-(4-Benzotriazol-1-yl-pyrimidin-2-ylamino)-cyclohexyl]-2-methoxy-acetamide], the melting point fell in the range of 233.5 to 235.4 °C.

Source of the values: patent publication US8962622B2, “Benzotriazole kinase modulators” (Roche Palo Alto LLC, priority 2006, dated 2015).
